# System: NFκB
# Experiment: NFκB-driven luciferase reporter in RAW 264.7 cells challenged with LPS
# Type: cell-based, mouse
# Conditions: Mus musculus, RAW264.7, 200 ng/mL LPS for 3 hours, read-out: NFκB Inhibitory Activity, IC50 μM
# Experimental: RAW 264.7 cells transfected with an NFκB-driven luciferase reporter are plated in 96 well plates. Cells are treated with Vehicle (0.1% ethanol) or test compounds for 2 hours. As a positive control for inhibition of NFκB signaling, 6 wells are treated with 10 μM dexamethasone. Cells are then challenged with 200 ng/mL LPS for 3 hours in the presence of test compounds. A subset of wells treated with vehicle should remain unstimulated with LPS to determine the floor signal of the assay. NFκB driven luciferase activity is developed by addition of BriteLite luciferase kit (Perkin-Elmer) and measured using a Victor V plate reader. NFκB activity (luciferase activity) for each treatment was normalized to Vehicle wells treated with LPS (% NFκB Response). AlamarBlue was used to monitor cell viability to ensure that inhibition of luciferase signal was not a result of compound cytotoxicity.
# RAW 264.7 cells stably expressing a 3×NF-κB response element-driven luciferase reporter were seeded into 96 well plates. After 18 hours, cells were pre-treated with compounds of the invention for 2 hours, and then stimulated with LPS (lipopolysaccharide, 200 ng/mL) or vehicle control for 3 h in the presence of the compounds of the invention. A set of six vehicle was left unstimulated with LPS in order to measure the assay floor. AlamarBlue viability dye (Invitrogen) was added to cells simultaneously with the delivery of LPS (final AlamarBlue concentration of 10%). After the 3 h incubation period with LPS, cell viability was measured by reading fluorescence (excitation 550 nm, emission 595 nm) with a Perkin Elmer Victor V plate reader. Then cell media was aspirated from each well. Luciferase signal was then developed by addition of the Britelite Plus reagent (Perkin Elmer). Luciferase activity was measured with the Perkin Elmer Victor V plate reader. NF-κB activity was expressed as a percent of the vehicle control wells (stimulated with LPS). Compounds were tested at 6 dose point titrations in triplicate to determine IC50 values.
row,IC50 [µM],Structure (SMILES)
1,> 200,"Nc1ccc(O)c(C(=O)O)c1 [Compound 5-ASA, 5-aminosalicylic acid, reference compound]"
2,< 200,"CC/C=C\C/C=C\C/C=C\C/C=C\C/C=C\C/C=C\CCC(=O)Nc1cccc(C(=O)O)c1 [Compound 17, 3-(4Z,7Z,10Z,13Z,16Z,19Z)-docosa-4,7,10,13,16,19-hexaenamidobenzoic acid]"
3,< 200,"CC/C=C\C/C=C\C/C=C\C/C=C\C/C=C\C/C=C\CCC(=O)NC(CC(C)C)C(=O)Oc1ccccc1C(=O)OCC (centres unmarked) [Compound I-1, ethyl 2-(2-(4Z,7Z,10Z,13Z,16Z,19Z)-docosa-4,7,10,13,16,19-hexaenamido-4-methylpentanoyloxy)benzoate]"
4,< 200,"CC/C=C\C/C=C\C/C=C\C/C=C\C/C=C\C/C=C\CCC(=O)NCCSSCCNC(=O)c1ccccc1O [Compound I-2, N-(2-(2-(2-(4Z,7Z,10Z,13Z,16Z,19Z)-docosa-4,7,10,13,16,19-hexaenamidoethyl)disulfanyl)ethyl)-2-hydroxybenzamide]"
5,< 200,"CC/C=C\C/C=C\C/C=C\C/C=C\C/C=C\C/C=C\CCC(=O)NCCOCCNC(=O)c1ccccc1O [Compound I-3, N-(2-(2-(4Z,7Z,10Z,13Z,16Z,19Z)-docosa-4,7,10,13,16,19-hexaenamidoethoxy)ethyl)-2-hydroxybenzamide]"
6,< 200,"CC/C=C\C/C=C\C/C=C\C/C=C\C/C=C\C/C=C\CCC(=O)NCC(C)(C)NC(=O)c1ccccc1O [Compound I-4, N-(1-(4Z,7Z,10Z,13Z,16Z,19Z)-docosa-4,7,10,13,16,19-hexaenamido-2-methylpropan-2-yl)-2-hydroxybenzamide]"
7,< 200,"CC/C=C\C/C=C\C/C=C\C/C=C\C/C=C\C/C=C\CCC(=O)NCCN(C)CCNC(=O)c1ccccc1O [Compound I-7, N-(2-((2-(4Z,7Z,10Z,13Z,16Z,19Z)-docosa-4,7,10,13,16,19-hexaenamidoethyl)(methyl)amino)ethyl)-2-hydroxybenzamide]"
8,> 200,"CC/C=C\C/C=C\C/C=C\C/C=C\C/C=C\C/C=C\CCC(=O)O [DHA, docosahexaenoic acid, reference compound]"
9,< 200,"CC/C=C\C/C=C\C/C=C\C/C=C\C/C=C\C/C=C\CCC(=O)NC(CC(C)C)C(=O)Nc1ccc(O)c(C(=O)O)c1 (centres unmarked) [III-6, 5-(2-(4Z,7Z,10Z,13Z,16Z,19Z)-docosa-4,7,10,13,16,19-hexaenamido-4-methylpentanamido)-2-hydroxybenzoic acid]"
10,< 200,"CC/C=C\C/C=C\C/C=C\C/C=C\C/C=C\C/C=C\CCC(=O)Nc1ccc(O)c(C(=O)OC)c1 [IIIb-1, methyl 5-docosa-4,7,10,13,16,19-hexaenamido-2-hydroxybenzoate]"
11,> 200,"CC/C=C\C/C=C\C/C=C\C/C=C\C/C=C\C/C=C\CCC(=O)NCC(=O)Nc1ccc(O)c(C(=O)O)c1 [IIIf-1, 5-(2-(4Z,7Z,10Z,13Z,16Z,19Z)-docosa-4,7,10,13,16,19-hexaenamidoacetamido)-2-hydroxybenzoic acid]"
12,> 200,"CC/C=C\C/C=C\C/C=C\C/C=C\C/C=C\C/C=C\CCC(=O)NC(Cc1ccccc1)C(=O)Nc1ccc(O)c(C(=O)O)c1 (centres unmarked) [IIIf-2, 5-(2-(4Z,7Z,10Z,13Z,16Z,19Z)-docosa-4,7,10,13,16,19-hexaenamido-3-phenylpropanamido)-2-hydroxybenzoic acid]"
13,< 200,"CC/C=C\C/C=C\C/C=C\C/C=C\C/C=C\C/C=C\CCC(=O)Oc1ccc(-c2ccc(F)cc2F)cc1C(=O)OCC [IVc-2, ethyl 4-((4Z,7Z,10Z,13Z,16Z,19Z)-docosa-4,7,10,13,16,19-hexaenoyloxy)-2′,4′-difluorobiphenyl-3-carboxylate]"
14,> 200,"CC/C=C\C/C=C\C/C=C\C/C=C\C/C=C\C/C=C\CCC(=O)Oc1ccccc1C(=O)O [Ia-1, 2-((4Z,7Z,10Z,13Z,16Z,19Z)-docosa-4,7,10,13,16,19-hexaenoyloxy)benzoic acid]"
15,< 200,"CC/C=C\C/C=C\C/C=C\C/C=C\C/C=C\C/C=C\CCC(=O)NCCNC(=O)c1ccccc1O [Ih-1, N-(2-(4Z,7Z,10Z,13Z,16Z,19Z)-docosa-4,7,10,13,16,19-hexaenamidoethyl)-2-hydroxybenzamide]"
16,> 200,"CC/C=C\C/C=C\C/C=C\C/C=C\C/C=C\C/C=C\CCC(=O)N1CCN(C(=O)c2ccccc2O)CC1 [Ih-2, (4Z,7Z,10Z,13Z,16Z,19Z)-1-(4-(2-hydroxybenzoyl)piperazin-1-yl)docosa-4,7,10,13,16,19-hexaen-1-one]"
17,< 200,"CC/C=C\C/C=C\C/C=C\C/C=C\C/C=C\C/C=C\CCC(=O)NCCN(C)C(=O)c1ccccc1O [Ih-3, N-(2-(4Z,7Z,10Z,13Z,16Z,19Z)-docosa-4,7,10,13,16,19-hexaenamidoethyl)-2-hydroxy-N-methylbenzamide]"
18,< 200,"CC/C=C\C/C=C\C/C=C\C/C=C\C/C=C\C/C=C\CCC(=O)N(C)CCNC(=O)c1ccccc1O [Ih-4, 2-hydroxy-N-(2-((4Z,7Z,10Z,13Z,16Z,19Z)—N-methyldocosa-4,7,10,13,16,19-hexaenamido)ethyl)benzamide]"
19,< 200,"CC/C=C\C/C=C\C/C=C\C/C=C\C/C=C\C/C=C\CCC(=O)NCC(C)NC(=O)c1ccccc1O (centres unmarked) [Ih-5, N-(1-(4Z,7Z,10Z,13Z,16Z,19Z)-docosa-4,7,10,13,16,19-hexaenamidopropan-2-yl)-2-hydroxybenzamide]"
20,< 200,"CC/C=C\C/C=C\C/C=C\C/C=C\C/C=C\C/C=C\CCC(=O)NC(C)CNC(=O)c1ccccc1O (centres unmarked) [Ih-6, N-(2-(4Z,7Z,10Z,13Z,16Z,19Z)-docosa-4,7,10,13,16,19-hexaenamidopropyl)-2-hydroxybenzamide]"
21,< 200,"CC/C=C\C/C=C\C/C=C\C/C=C\C/C=C\C/C=C\CCC(=O)NC(C)C(C)NC(=O)c1ccccc1O (centres unmarked) [Ih-7, N-(3-(4Z,7Z,10Z,13Z,16Z,19Z)-docosa-4,7,10,13,16,19-hexaenamidobutan-2-yl)-2-hydroxybenzamide]"
22,> 200,"CC/C=C\C/C=C\C/C=C\C/C=C\C/C=C\C/C=C\CCC(=O)NCCNC(=O)c1ccc(C(F)(F)F)cc1O [Ih-8, N-(2-(4Z,7Z,10Z,13Z,16Z,19Z)-docosa-4,7,10,13,16,19-hexaenamidoethyl)-2-hydroxy-4-(trifluoromethyl)benzamide]"
23,< 200,"CC/C=C\C/C=C\C/C=C\C/C=C\C/C=C\C/C=C\CCC(=O)NCCNC(=O)c1cc(-c2ccc(F)cc2F)ccc1O [Ih-9, N-(2-(4Z,7Z,10Z,13Z,16Z,19Z)-docosa-4,7,10,13,16,19-hexaenamidoethyl)-2′,4′-difluoro-4-hydroxybiphenyl-3-carboxamide]"
24,< 200,"CC/C=C\C/C=C\C/C=C\C/C=C\C/C=C\CCCC(=O)NCCNC(=O)c1cc(-c2ccc(F)cc2F)ccc1O [Ih-10, 2′,4′-difluoro-4-hydroxy-N-(2-(5Z,8Z,11Z,14Z,17Z)-icosa-5,8,11,14,17-pentaenamidoethyl)biphenyl-3-carboxamide]"
25,< 200,"CC/C=C\C/C=C\C/C=C\C/C=C\C/C=C\C/C=C\CCC(=O)NCCN1C(=O)CC(SC[C@H](NC(=O)c2ccccc2O)C(=O)OC)C1=O (stereo partly drawn) [Ih-11, (R)-methyl 3-(1-(2-(4Z,7Z,10Z,13Z,16Z,19Z)-docosa-4,7,10,13,16,19-hexaenamidoethyl)-2,5-dioxopyrrolidin-3-ylthio)-2-(2-hydroxybenzamido)propanoate]"
26,< 200,"CC/C=C\C/C=C\C/C=C\C/C=C\C/C=C\C/C=C\CCC(=O)NC(Cc1ccccc1)C(=O)Oc1ccccc1C(=O)OCC (centres unmarked) [Ii-3, ethyl 2-(2-(4Z,7Z,10Z,13Z,16Z,19Z)-docosa-4,7,10,13,16,19-hexaenamido-3-phenylpropanoyloxy)benzoate]"
27,> 200,"CC/C=C\C/C=C\C/C=C\C/C=C\C/C=C\C/C=C\CCC(=O)NC(CC(C)C)C(=O)Oc1ccc(-c2ccc(F)cc2F)cc1C(=O)OCC (centres unmarked) [Ii-4, ethyl 4-(2-(4Z,7Z,10Z,13Z,16Z,19Z)-docosa-4,7,10,13,16,19-hexaenamido-4-methylpentanoyloxy)-2′,4′-difluorobiphenyl-3-carboxylate]"

row,Structure (SMILES),IC50 [µM]
1,"CCCCC/C=C\C/C=C\C/C=C\C/C=C\CCCC(=O)Nc1ccc(O)c(C(=O)O)c1 [Compound 18, 2-hydroxy-5-(5Z,8Z,11Z,14Z)-icosa-5,8,11,14-tetraenamidobenzoic acid]",> 200
2,"CC/C=C\C/C=C\C/C=C\C/C=C\C/C=C\CCCC(=O)Nc1ccc(O)c(C(=O)O)c1 [IIIg-1, 2-hydroxy-5-(5Z,8Z,11Z,14Z,17Z)-icosa-5,8,11,14,17-pentaenamidobenzoic acid]",< 200
3,"CC/C=C\C/C=C\C/C=C\C/C=C\C/C=C\C/C=C\CCC(=O)NCCCOC(=O)c1ccccc1OC(C)=O [Ic-1, 3-(4Z,7Z,10Z,13Z,16Z,19Z)-docosa-4,7,10,13,16,19-hexaenamidopropyl 2-acetoxybenzoate]",> 200
4,"CC/C=C\C/C=C\C/C=C\C/C=C\C/C=C\C/C=C\CCC(=O)OC(C)OC(=O)c1ccccc1OC(C)=O (centres unmarked) [Ic-12, 1-((4Z,7Z,10Z,13Z,16Z,19Z)-docosa-4,7,10,13,16,19-hexaenoyloxy)ethyl 2-acetoxybenzoate]",< 200
5,CC/C=C\C/C=C\C/C=C\C/C=C\C/C=C\CCCC(=O)NCCNC(=O)c1ccccc1O [Ih-14],< 200

# Reference: US9085527B2, “Fatty acid acylated salicylates and their uses” (Catabasis Pharmaceuticals, Inc., priority 2008, dated 2015)
